Results from US8889192B2, “Magnetic nanomedicine for inhibiting/treating human prostate cancer” (priority 2011, dated 2014).

Assays:
[1] = test system: human prostate cancer cells CWR22R; assay: Growth of CWR22R cells, XTT cell counting; type: cell-based; settings: 10 μM, 48 hours, no magnetic field
Protocol: Cell cultivation: Place 150 μL of a mixture liquid containing 10000 human prostate cancer cells CW[…] into every well of a 96-well culture plate. […] Agent addition: 24 hours later, separately mix […] magnetic nanocomposite (600 μg/mL), Taxol, and […]/Taxol magnetic nanomedicine with a RPMI1640 medium to form mixed solutions. […] Cell counting: Remove RPMI1640 and add 120 μL of an XTT reaction liquid to the wells.

tubulin protein [2] = test system: tubulin protein
[3] = test system: human prostate cancer cells PC3; assay: Growth of PC3 cells, XTT cell counting; type: cell-based; settings: 10 μM, 48 hours, no magnetic field
Protocol: Cell cultivation: Place 150 μL of a mixture liquid containing 10000 human prostate cancer cells PC3 into every well of a 96-well culture plate. […] Agent addition: 24 hours later, separately mix […] magnetic nanocomposite (600 μg/mL), Taxol, and […]/Taxol magnetic nanomedicine with a RPMI1640 medium to form mixed solutions. […] Cell counting: […]

α-tubulin = assay: Content of α-tubulin in CWR22R cells, Western method; settings: 10 μM, 24 hours, no magnetic field
tubulin protein [4] = assay: Stability analysis: residual activity by tubulin protein assay after storage; settings: stored at 25° C. for 14 days

half life (tubulin protein [2]): 32 h | half-life (physchem): 19 h | activity after storage (tubulin protein [4]): has lost its activity
SMILES: CC(=O)O[C@H]1C(=O)[C@@]2(C)[C@H]([C@H](OC(=O)c3ccccc3)[C@]3(O)C[C@H](OC(=O)[C@H](O)[C@@H](NC(=O)c4ccccc4)c4ccccc4)C(C)=C1C3(C)C)[C@]1(OC(C)=O)CO[C@@H]1C[C@@H]2O [Taxol]
CWR22R growth-inhibition ratio [1]: 41% | PC3 growth-inhibition ratio [3]: 25% | α-tubulin inhibition ratio (α-tubulin): 52%
